Values joined by “and” are separate entries in the source; they are usually repeats but may differ in a detail not shown here. Equal values may be shown once.
Tests used:
[1] = target: T1, beta-glucuronidase (GUS) (Homo sapiens, UniProt P08236); experiment: Beta-glucuronidase assay with luciferin 6'-glucuronide (luminescent) or 4-methylumbelliferyl glucuronide (fluorescent); type: biochemical; conditions: for limit-of-detection: GUS enzyme detected, luminescent vs fluorescent substrate; for luminescence, + GUS: pH 6.3, 15 minutes
T1 construct: purchased Sigma-Aldrich
T1 sequence (P08236 23-651): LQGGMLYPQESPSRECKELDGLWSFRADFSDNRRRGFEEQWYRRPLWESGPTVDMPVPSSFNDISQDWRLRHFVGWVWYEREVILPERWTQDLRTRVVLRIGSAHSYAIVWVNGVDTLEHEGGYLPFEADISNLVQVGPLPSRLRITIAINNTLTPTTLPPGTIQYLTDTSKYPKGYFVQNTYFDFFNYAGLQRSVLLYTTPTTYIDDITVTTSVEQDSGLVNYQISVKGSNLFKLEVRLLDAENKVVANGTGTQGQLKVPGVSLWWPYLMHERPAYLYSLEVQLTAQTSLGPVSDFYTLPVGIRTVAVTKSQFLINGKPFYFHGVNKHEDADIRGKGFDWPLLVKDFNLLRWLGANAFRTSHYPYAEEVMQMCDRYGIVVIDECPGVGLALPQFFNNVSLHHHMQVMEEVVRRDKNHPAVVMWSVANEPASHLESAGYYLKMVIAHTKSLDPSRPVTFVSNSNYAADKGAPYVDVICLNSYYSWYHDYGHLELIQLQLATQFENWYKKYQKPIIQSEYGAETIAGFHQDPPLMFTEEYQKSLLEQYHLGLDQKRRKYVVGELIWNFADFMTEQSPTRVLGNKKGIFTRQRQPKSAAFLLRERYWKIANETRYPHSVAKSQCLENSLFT
Protocol: The source of the human enzyme was Sigma-Aldrich. GUS was incubated with the substrate in 50 mM MES, pH 6.3, for 15 minutes. […]

[2] = system: luciferase; experiment: No-enzyme control: activity of luciferase towards the luciferin derivative (background luminescence); conditions: for luminescence, no GUS: 50 mM MES, pH 6.3
Protocol: The reactions (Table 1) were assembled by first adding the water and 1 M BisTris solutions in individual 0.5 ml microfuge tubes, then adding the other components except for the GST #3 solution. Finally, the GST #3 (Figure 12) solution was added to the reactions, the resulting solution was mixed, and the time of addition noted. […]
The GST #3 addition was performed last and the solutions were mixed immediately after addition of GST #3. […] After mixing, the light produced by the solution was measured using a Turner TD 20/20 luminometer.
After assembly, the enzyme stock solutions were diluted 1:10 into 10 mM HEPES, pH 7.5 and the following additions were made to the reactions.
A 5 µl sample of the luciferol DMF solution was added to each of the reactions above and a timer was started upon the addition of the first luciferol/DMF solution to reaction 1. All reactions were kept at room temperature.
After incubating 5 minutes at room temperature, the light produced by these samples was measured using a Turner TD 20 luminometer.
To initiate the conversions, 5 µl of luciferol solution was added to reactions […], 6-9, and 11-15, and 10 µl of luciferol was added to reactions 5 and 10 and the tubes mixed after that addition. Immediately after luciferol addition to reaction 1, a timer was started and the time of luciferol addition to the other tubes noted. After mixing, reaction 11-15 were placed at 37°C.
After incubating 10 minutes at room temperature, the light produced by these samples was read using a Turner TD 20 luminometer (Table 18).
To initiate Step 1, 45 µl of enzyme and buffer were added to each well.
Solution A and Solution B are components of the NADPH Regeneration System (V9510, Promega Corp., Madison WI). […] Solution B contains 40 units/ml glucose-6-phosphate dehydrogenase in 5 mM citrate pH 5.5.

[3] = system: calf intestinal alkaline phosphatase; experiment: Luminescent alkaline phosphatase assay with AP 4, luciferase and ATP; type: biochemical; conditions: 1 µM AP 4
Protocol: Alkaline Phosphatase (Promega Corp. M1821) was diluted in 50 mM Tris Cl, pH 9.3, 1 mM MgCl2, 0.1 mM ZnCl2 to a concentration of 1 fmol/µl to 0.01 zeptomole/µl.
A reaction solution was assembled containing 1 µM AP 4 (Figure 69); 100 µg/ml of the thermostable luciferase, 2 mM ATP; 10 mM MgCl2; 100 µM ZnCl2 in 50 mM Tris Cl, pH 8.5. This solution was allowed to incubate for 1 hour at room temperature to reduce background light production.
Quadruplicate wells in a luminometer plate (Nunc Maxisorb plate) were given 10 µl of the diluted alkaline phosphatase stocks and 100 µl of reaction solution. The plate was incubated at room temperature for 30 minutes, then the light produced by the solutions was measured using a Veritas Luminometer.

## O=C(O)[C@H]1O[C@@H](Oc2ccc3nc(C4=N[C@@H](C(=O)O)CS4)sc3c2)[C@H](O)[C@@H](O)[C@@H]1O [Luciferin 6'-glucuronide]
[1]
  limit-of-detection: 0.28 ng/mL
[1]; [GUS] 4.3 ng/ml
  signal-to-noise, luminescence: 68
[1]; [GUS] 8.7 ng/ml
  signal-to-noise, luminescence: 133
[1]; [GUS] 34.7 ng/ml
  signal-to-noise, luminescence: 649
[1]; [GUS] 69.4 ng/ml
  signal-to-noise, luminescence: 1411
[1]; [GUS] 138.8 ng/ml
  signal-to-noise, luminescence: 3104
[1]; [GUS] 277.5 ng/ml
  signal-to-noise, luminescence: 7300

## O=C(O)[C@H]1O[C@@H](Oc2ccc3nc(C4=N[C@@H](C(=O)O)CS4)sc3c2)[C@H](O)[C@@H](O)[C@@H]1O [drawing 190]
[1]; [substrate] 3.5 uM, 50 mM MES
  luminescence, + GUS: 46,210
[1]; [substrate] 31.5 uM, 50 mM MES
  luminescence, + GUS: 232,533
[1]; [substrate] 94.4 uM, 50 mM MES
  luminescence, + GUS: 423,619
[1]; [substrate] 283.1 uM, 50 mM MES
  luminescence, + GUS: 696,778
[1]; [substrate] 849.3 uM, 50 mM MES
  luminescence, + GUS: 994,977
[1]; [substrate] 2548.0 uM, 50 mM MES
  luminescence, + GUS: 1,335,243
[1]; [substrate] […], 50 mM MES
  luminescence, + GUS: 107,502
[2]; [substrate] 3.5 uM
  luminescence, no GUS: 1,108
[2]; [substrate] 31.5 uM
  luminescence, no GUS: 5,068
[2]; [substrate] 94.4 uM
  luminescence, no GUS: 13,091
[2]; [substrate] 283.1 uM
  luminescence, no GUS: 34,127
[2]; [substrate] 849.3 uM
  luminescence, no GUS: 91,975
[2]; [substrate] 2548.0 uM
  luminescence, no GUS: 209,219
[2]; [substrate] […]
  luminescence, no GUS: 2,190

## Cc1cc(=O)oc2cc(O[C@@H]3O[C@H](C(=O)O)[C@@H](O)[C@H](O)[C@H]3O)ccc12 [4-methylumbelliferyl glucuronide, reference compound]
[1]; 50 mM MES, pH 6.3
  Km: 59 ± 8 µM
[1]
  limit-of-detection: 2.01 ng/mL

## O=C(O)[C@H]1CSC(c2nc3ccc(OCc4ccc(OP(=O)(O)O)cc4)cc3s2)=N1 [AP-4, 6-(4-phosphoric acid benzylether) luciferin]
[3]; # AP molecules 0
  Net Reading: 0
[3]; # AP molecules 6
  Avg Reading: 2714.67
  Net Reading: 89
  light reading, Reaction 1: 2706
  light reading, Reaction 2: 2807
  light reading, Reaction 3: 2631
[3]; # AP molecules 60
  Avg Reading: 2772.5
  Net Reading: 148
  light reading, Reaction 1: 2920
  light reading, Reaction 2: 2795
  light reading, Reaction 3: 2728
  light reading, Reaction 4: 2647
[3]; # AP molecules 600
  Avg Reading: 3079.8
  Net Reading: 455
  light reading, Reaction 1: 3118
  light reading, Reaction 2: 3051
  light reading, Reaction 3: 3345
  light reading, Reaction 4: 2805
[3]; # AP molecules 6,000
  Avg Reading: 3185
  Net Reading: 560
  light reading, Reaction 1: 3189
  light reading, Reaction 2: 3144
  light reading, Reaction 3: 3002
  light reading, Reaction 4: 3405
[3]; # AP molecules 60,000
  Avg Reading: 5685.3
  Net Reading: 3060
  light reading, Reaction 1: 5956
  light reading, Reaction 2: 5641
  light reading, Reaction 3: 5416
  light reading, Reaction 4: 5728
[3]; # AP molecules 600,000
  Avg Reading: 30658.5
  Net Reading: 28034
  light reading, Reaction 1: 30042
  light reading, Reaction 2: 31132
  light reading, Reaction 3: 29781
  light reading, Reaction 4: 31679
[3]; # AP molecules 6,000,000
  Avg Reading: 274510.5
  Net Reading: 271886
  light reading, Reaction 1: 281115
  light reading, Reaction 2: 254693
  light reading, Reaction 3: 265592
  light reading, Reaction 4: 296642
[3]; # AP molecules 60,000,000
  Avg Reading: 2394497
  Net Reading: 2391872
  light reading, Reaction 1: 2639163
  light reading, Reaction 2: 2283882
  light reading, Reaction 3: 2320675
  light reading, Reaction 4: 2334267
[2]
  Avg Reading: 2624.5
  light reading, Reaction 1: 2620
  light reading, Reaction 2: 2735
  light reading, Reaction 3: 2612
  light reading, Reaction 4: 2531

## OC[C@H]1CSC(c2nc3ccc(O)cc3s2)=N1 [luciferol]
[2]; Table 18 Rx 1: no enzyme, KPO4 pH 7.4, room temperature, 30/60/95/190/280 minutes
  light produced: 6.077 and 6.091 and 5.849 and 4.364 and 7.694
[2]; Table 18 Rx 11: no enzyme, 37°C, time
  light produced: 5.814 and 6.078 and 6.302 and 6.889 and 8.399

Reference: patent publication EP1935986B1, “Luminogenic and fluorogenic compounds and methods to detect molecules or conditions” (priority 2005, dated 2006)
